Experimental data from patent publication EP0745595A1, “3-(3-Aryloxyphenyl)-1-(substituted methyl)-s-triazine-2,4,6-oxo or thiotrione herbicidal agents” (American Cyanamid Company, priority 1995, dated 1996).

What was measured:
Format in all cases: in vivo
GALIUM APARINE = assay: Postemergence herbicidal evaluation, GALAP (Galium); design: key to GALAP rating / Herbicidal effect rating, GALAP / GALAP: 0-9 visual rating scale vs untreated control
Procedure: (§1) In the tests, seedling plants are grown in jiffy flats for about two weeks. The test compounds are dispersed in 50/50 acetone/water mixtures containing 0.5% TWEEN®20, a polyoxyethylene sorbitan monolaurate surfactant of Atlas Chemical Industries, in sufficient quantities to provide the equivalent of about 0.125 kg to 0.500 kg per hectare of active compound when applied to the plants through a spray nozzle operating at 40 psi for a predetermined time. After spraying, the plants are placed on greenhouse benches and are cared for in the usual manner, commensurate with conventional greenhouse practices. From four to five weeks after treatment, the seedling plants are examined and rated according to the rating system set forth below. Where more than one test is involved for a given compound, the data are averaged.
(§2) Plant species employed in these evaluations are reported by header abbreviation, common name and scientific name.
(§3) Results of herbicide evaluation are expressed on a rating scale (0-9). The scale is based upon a visual observation of plant stand, vigor, malformation, size, chlorosis and overall plant appearance as compared with a control.

CASSIA OBTUSIFOLIA, L. = assay: Postemergence herbicidal evaluation, CASOB (Sicklepod); design: key to CASOB rating / Herbicidal effect rating, CASOB / CASOB: 0-9 visual rating scale vs untreated control
Procedure: as §1, §2, §3

[1] = tested on: ECHINOCHLOA CRUS-GALLI, (L) BEAU; assay: Postemergence herbicidal evaluation, ECHCG (Barnyardgrass); design: key to ECHCG rating / Herbicidal effect rating, ECHCG / ECHCG: 0-9 visual rating scale vs untreated control
Procedure: as §1, §2, §3

[2] = tested on: ORYZA SATIVA, L. TEBONNET; assay: Postemergence herbicidal evaluation, ORYSAT (Rice, Tebonnet); design: key: 0-9 visual rating scale vs untreated control
Procedure: as §1, §2, §3

[3] = tested on: ORYZA SATIVA, L. TEBONNET; assay: Rice tolerance to post-transplant applications under flooded paddy conditions, ORYSAT (Rice, Tebonnet); conditions: post-transplanted rice
Procedure: as §3
The tolerance of transplanted rice to post-transplanted herbicide applications is determined as follows: two ten-day-old rice seedlings (CV. Tebonnet) are transplanted into a silt loam soil in 32 oz. plastic containers with a diameter of 10.5 cm and no drainage holes. After transplanting the containers are flooded and the water level is maintained at 1.5 to 3 cm above the soil surface. […] The treated containers are placed on greenhouse benches, watered such that the water level is maintained as stated above, and cared for according to normal greenhouse procedures. Three to four weeks after treatment the test is terminated and each container is examined and herbicidal effect rated according to the rating system provided in Example 40. The compounds evaluated are reported by compound number given in Example 40.
Plant species employed in this example are reported by header abbreviation, common name and scientific name.

[4] = tested on: AMBROSIA ARTEMISIIFOLIA, L.; assay: Postemergence herbicidal evaluation, AMBEL (Ragweed, Common)
Procedure: as §1, with “in sufficient quantities to provide the equivalent of about 0.125 kg to 0.500 kg per hectare of active compound when applied” left out
as §2, §3

[5] = tested on: TRITICUM AESTIVUM, CV. APOLLO; assay: Postemergence herbicidal evaluation, TRZAWO (Wheat, Winter, CV. APOLLO)
Procedure: as §1, with “in sufficient quantities to provide the equivalent of about 0.125 kg to 0.500 kg per hectare of active compound when applied to the plants” left out
as §2, §3

ZEA MAYS L. = assay: Postemergence herbicidal evaluation, ZEAMX (Corn, Field)
Procedure: as §1, with “in sufficient quantities to provide the equivalent of about 0.125 kg to 0.500 kg per hectare of active compound when applied” left out
as §2, §3

CHENOPODIUM ALBUM, L. [6] = assay: Postemergence herbicidal evaluation, CHEAL (Lambsquarters, Common)
Procedure: as §1, with “in sufficient quantities to provide the equivalent of about 0.125 kg to 0.500 kg per hectare of active compound when applied” left out
as §2, §3

CHENOPODIUM ALBUM, L. [7] = assay: Preemergence herbicidal evaluation, CHEAL (Lambsquarters, Common);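 also: higher means more injury with 8 approaching complete kill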
Source text: as §3
The preemergence herbicidal activity of the test compounds of the present invention is exemplified by the following tests in which the seeds of a variety of monocotyledonous and dicotyledonous plants are separately mixed with potting soil and planted on top of approximately one inch of soil in separate pint cups. […] The treated cups are then placed on greenhouse benches, watered and cared for in accordance with conventional greenhouse procedures. From four to five weeks after treatment, the tests are terminated and each cup is examined and rated according to the rating system provided in Example 40.
The compounds evaluated are reported by compound number given in Example 40.

IPOMOEA SPP. = assay: Postemergence herbicidal evaluation, IPOSS (Morningglory spp.)
Procedure: as §1, with “in sufficient quantities to provide the equivalent of about 0.125 kg to 0.500 kg per hectare of active compound when applied” left out
as §2, §3

[8] = tested on: ABUTILON THEOPHRASTI, MEDIC.; assay: Postemergence herbicidal evaluation, ABUTH (Velvetleaf)
Procedure: as §1, with “in sufficient quantities to provide the equivalent of about 0.125 kg to 0.500 kg per hectare of active compound when applied” left out
as §2, §3

[9] = tested on: SETARIA VIRIDIS, (L) BEAU; assay: Postemergence herbicidal evaluation, SETVI (Foxtail, Green); design: key to SETVI rating / Herbicidal effect rating, SETVI / SETVI: 0-9 visual rating scale vs untreated control
Procedure: as §1, §2, §3

[10] = tested on: GLYCINE MAX(L) MERR. CV. WILLIAMS; assay: Postemergence herbicidal evaluation, GLXMAW (Soybean, Williams); design: key to GLXMAW rating / Herbicidal effect rating, GLXMAW / GLXMAW: 0-9 visual rating scale vs untreated control
Procedure: as §1, §2, §3

Cn1c(=O)[nH]c(=O)n(-c2cc(Oc3ccc(C(F)(F)F)cc3Cl)ccc2[N+](=O)[O-])c1=O [B, reference compound]
Herbicidal effect rating, GALAP (GALIUM APARINE; 0.031 kg/ha): 2.0
Herbicidal effect rating, GALAP (GALIUM APARINE; 0.063 kg/ha): 2.5
Herbicidal effect rating, GALAP (GALIUM APARINE; 0.125 kg/ha): 7.0
Herbicidal effect rating, GALAP (GALIUM APARINE; 0.250 kg/ha): 4.5
Herbicidal effect rating, CASOB (CASSIA OBTUSIFOLIA, L.; 0.031 kg/ha): 3.5
Herbicidal effect rating, CASOB (CASSIA OBTUSIFOLIA, L.; 0.063 kg/ha): 4.0
Herbicidal effect rating, CASOB (CASSIA OBTUSIFOLIA, L.; 0.125 kg/ha): 8.0
Herbicidal effect rating, CASOB (CASSIA OBTUSIFOLIA, L.; 0.250 kg/ha): 5.5
Herbicidal effect rating, ECHCG ([1]; 0.031 kg/ha): 1.0
Herbicidal effect rating, ECHCG ([1]; 0.063 kg/ha): 2.0
Herbicidal effect rating, ECHCG ([1]; 0.125 kg/ha): 3.0
Herbicidal effect rating, ECHCG ([1]; 0.250 kg/ha): 3.5
Herbicidal effect rating, ORYSAT ([2]; 0.031 kg/ha): 4.0
Herbicidal effect rating, ORYSAT ([2]; 0.063 kg/ha): 4.5
Herbicidal effect rating, ORYSAT ([2]; 0.125 kg/ha): 5.5
Herbicidal effect rating, ORYSAT ([2]; 0.250 kg/ha): 5.0
ORYSAT ([3]; Rate 0.031 kg/ha): 2.0
ORYSAT ([3]; Rate 0.063 kg/ha): 3.0
ORYSAT ([3]; Rate 0.125 kg/ha): 2.5
ORYSAT ([3]; Rate 0.250 kg/ha): 4.5
Herbicidal effect rating, AMBEL ([4]; 0.031 kg/ha): 3.0
Herbicidal effect rating, AMBEL ([4]; 0.063 kg/ha): 4.5
Herbicidal effect rating, AMBEL ([4]; 0.125 kg/ha): 8.0
Herbicidal effect rating, AMBEL ([4]; 0.250 kg/ha): 7.0
Herbicidal effect rating, TRZAWO ([5]; 0.031 kg/ha): 3.0
Herbicidal effect rating, TRZAWO ([5]; 0.063 kg/ha): 3.0
Herbicidal effect rating, TRZAWO ([5]; 0.125 kg/ha): 4.0
Herbicidal effect rating, TRZAWO ([5]; 0.250 kg/ha): 4.3
Herbicidal effect rating, ZEAMX (ZEA MAYS L.; 0.031 kg/ha): 3.3
Herbicidal effect rating, ZEAMX (ZEA MAYS L.; 0.063 kg/ha): 3.3
Herbicidal effect rating, ZEAMX (ZEA MAYS L.; 0.125 kg/ha): 4.5
Herbicidal effect rating, ZEAMX (ZEA MAYS L.; 0.250 kg/ha): 4.3
Herbicidal effect rating, CHEAL (CHENOPODIUM ALBUM, L. [6]; 0.031 kg/ha): 2.0
Herbicidal effect rating, CHEAL (CHENOPODIUM ALBUM, L. [6]; 0.063 kg/ha): 2.5
Herbicidal effect rating, CHEAL (CHENOPODIUM ALBUM, L. [6]; 0.125 kg/ha): 7.0
Herbicidal effect rating, CHEAL (CHENOPODIUM ALBUM, L. [6]; 0.250 kg/ha): 4.5
CHEAL (CHENOPODIUM ALBUM, L. [7]; Rate 0.031 kg/ha): 4.5
CHEAL (CHENOPODIUM ALBUM, L. [7]; Rate 0.063 kg/ha): 4.5
CHEAL (CHENOPODIUM ALBUM, L. [7]; Rate 0.125 kg/ha): 4.5
CHEAL (CHENOPODIUM ALBUM, L. [7]; Rate 0.250 kg/ha): 4.5
Herbicidal effect rating, IPOSS (IPOMOEA SPP.; 0.031 kg/ha): 8.0
Herbicidal effect rating, IPOSS (IPOMOEA SPP.; 0.063 kg/ha): 9.0
Herbicidal effect rating, IPOSS (IPOMOEA SPP.; 0.125 kg/ha): 8.0
Herbicidal effect rating, IPOSS (IPOMOEA SPP.; 0.250 kg/ha): 9.0
Herbicidal effect rating, ABUTH ([8]; 0.031 kg/ha): 4.5
Herbicidal effect rating, ABUTH ([8]; 0.063 kg/ha): 7.0
Herbicidal effect rating, ABUTH ([8]; 0.125 kg/ha): 7.0
Herbicidal effect rating, ABUTH ([8]; 0.250 kg/ha): 9.0
Herbicidal effect rating, SETVI ([9]; 0.031 kg/ha): 0.5
Herbicidal effect rating, SETVI ([9]; 0.063 kg/ha): 1.0
Herbicidal effect rating, SETVI ([9]; 0.125 kg/ha): 0.0
Herbicidal effect rating, SETVI ([9]; 0.250 kg/ha): 2.0
Herbicidal effect rating, GLXMAW ([10]; 0.031 kg/ha): 3.3
Herbicidal effect rating, GLXMAW ([10]; 0.063 kg/ha): 4.0
Herbicidal effect rating, GLXMAW ([10]; 0.125 kg/ha): 4.0
Herbicidal effect rating, GLXMAW ([10]; 0.250 kg/ha): 4.3
